# From patent US5324502A, “Radiopharmaceuticals for imaging the heart” (priority 1992, dated 1994)
# Where two headings read alike, the source gives them in different places.
# Legend:
# [1] = rat, i.v.; for % injected dose in heart, 1 min / % injected dose in heart, 2 h: preliminary studies
# Experimental: The gallium-67 complexes are prepared by ligand exchange from gallium-67 chloride, employing the tris(acetylacetonato)gallium(III) complex as an intermediate. The Ga-67 acetylacetonate in ethanol is reacted with the chelating ligand or ligand precursor at elevated temperature to form rapidly the desired gallium radiopharmaceutical. […] The biodistribution of several radiopharmaceuticals was determined in rats following intravenous injection using techniques previously described (M. A. Green, Nuclear Medicine and Biology 14:59-61, 1987; E. John and M. A. Green, J. Medicinal Chemistry, 33:1764-1770, 1990).
# Under ether anesthesia, 1 to 3 μCi (0.1-0.2 mL) of no-carrier-added Ga-67 compound was administered by bolus injection into the femoral vein of male Sprague-Dawley rats. The ether anesthetized rats were sacrificed by decapitation at given time intervals post-injection, organs of interest were removed, weighed, and the gallium-67 activity counted. The biodistribution was calculated as a percentage of the injected dose per gram of tissue and percentage of injected dose per organ for each sample.
# [2] = Octanol/water partition coefficient of radiolabeled gallium complexes; assay type: physicochemical
# Experimental: Octanol/water partition coefficients were measured by vortex mixing 1 mL of 1-octanol and 1 mL of isotonic Tris buffer (pH 7.0) with a 1-5 μL sample of the radiolabeled gallium complex. Following centrifugation at >1200 g for 5 minutes, the octanol and aqueous phases were sampled and counted in an automatic well counter.
compound,measurement,setting,value
"^67 GaL^+ L = [(4,6-MeO2 Sal)2 DM-BAPEN, ^67 GaL^+ L = [bis(4,6-dimethoxysalicylaldimino)-N,N'-bis(2,2'-dimethyl-3-aminopropyl)-ethylenediamine]]","% Injected Dose per Gram Tissue, Blood",[1]; 1 min,1.30 ± 0.45 % Injected Dose per Gram Tissu
same,"% Injected Dose per Gram Tissue, Brain",[1]; 1 min,0.06 ± 0.01 % Injected Dose per Gram Tissu
same,"% Injected Dose per Gram Tissue, Heart",[1]; 1 min,1.31 ± 0.17 % Injected Dose per Gram Tissu
same,"% Injected Dose per Gram Tissue, Kidney (one)",[1]; 1 min,10.62 ± 0.94 % Injected Dose per Gram Tissu
same,"% Injected Dose per Gram Tissue, Liver",[1]; 1 min,5.82 ± 0.93 % Injected Dose per Gram Tissu
same,"% Injected Dose per Gram Tissue, Lungs",[1]; 1 min,1.24 ± 0.20 % Injected Dose per Gram Tissu
same,"% Injected Dose per Gram Tissue, Spleen",[1]; 1 min,1.59 ± 0.57 % Injected Dose per Gram Tissu
same,"% Injected Dose per Organ, Blood",[1]; 1 min,18.76 ± 6.91 % Injected Dose per Organ
same,"% Injected Dose per Organ, Brain",[1]; 1 min,0.10 ± 0.02 % Injected Dose per Organ
same,"% Injected Dose per Organ, Heart",[1]; 1 min,1.03 ± 0.17 % Injected Dose per Organ
same,"% Injected Dose per Organ, Kidney (one)",[1]; 1 min,8.33 ± 0.80 % Injected Dose per Organ
same,"% Injected Dose per Organ, Liver",[1]; 1 min,50.62 ± 5.72 % Injected Dose per Organ
same,"% Injected Dose per Organ, Lungs",[1]; 1 min,1.63 ± 0.47 % Injected Dose per Organ
same,"% Injected Dose per Organ, Spleen",[1]; 1 min,1.07 ± 0.35 % Injected Dose per Organ
same,"% injected dose in heart, 1 min",[1]; 1 min,1.03 ± 0.17 % injected dose
same,"% Injected Dose per Gram Tissue, Blood",[1]; 15 min,0.13 ± 0.01 % Injected Dose per Gram Tissu
same,"% Injected Dose per Gram Tissue, Brain",[1]; 15 min,0.03 ± 0.01 % Injected Dose per Gram Tissu
same,"% Injected Dose per Gram Tissue, Heart",[1]; 15 min,1.23 ± 0.07 % Injected Dose per Gram Tissu
same,"% Injected Dose per Gram Tissue, Kidney (one)",[1]; 15 min,10.49 ± 0.92 % Injected Dose per Gram Tissu
same,"% Injected Dose per Gram Tissue, Liver",[1]; 15 min,3.92 ± 0.20 % Injected Dose per Gram Tissu
same,"% Injected Dose per Gram Tissue, Lungs",[1]; 15 min,0.63 ± 0.03 % Injected Dose per Gram Tissu
same,"% Injected Dose per Gram Tissue, Spleen",[1]; 15 min,1.96 ± 0.32 % Injected Dose per Gram Tissu
same,"% Injected Dose per Organ, Blood",[1]; 15 min,1.97 ± 0.15 % Injected Dose per Organ
same,"% Injected Dose per Organ, Brain",[1]; 15 min,0.04 ± 0.01 % Injected Dose per Organ
same,"% Injected Dose per Organ, Heart",[1]; 15 min,0.93 ± 0.04 % Injected Dose per Organ
same,"% Injected Dose per Organ, Kidney (one)",[1]; 15 min,8.77 ± 0.60 % Injected Dose per Organ
same,"% Injected Dose per Organ, Liver",[1]; 15 min,36.83 ± 2.91 % Injected Dose per Organ
same,"% Injected Dose per Organ, Lungs",[1]; 15 min,0.75 ± 0.05 % Injected Dose per Organ
same,"% Injected Dose per Organ, Spleen",[1]; 15 min,1.25 ± 0.20 % Injected Dose per Organ
same,"% Injected Dose per Gram Tissue, Blood",[1]; 120 min,0.03 ± 0.01 % Injected Dose per Gram Tissu
same,"% Injected Dose per Gram Tissue, Brain",[1]; 120 min,0.02 ± 0.01 % Injected Dose per Gram Tissu
same,"% Injected Dose per Gram Tissue, Heart",[1]; 120 min,1.36 ± 0.09 % Injected Dose per Gram Tissu
same,"% Injected Dose per Gram Tissue, Kidney (one)",[1]; 120 min,6.86 ± 0.54 % Injected Dose per Gram Tissu
same,"% Injected Dose per Gram Tissue, Liver",[1]; 120 min,0.42 ± 0.02 % Injected Dose per Gram Tissu
same,"% Injected Dose per Gram Tissue, Lungs",[1]; 120 min,0.58 ± 0.06 % Injected Dose per Gram Tissu
same,"% Injected Dose per Gram Tissue, Spleen",[1]; 120 min,1.59 ± 0.16 % Injected Dose per Gram Tissu
same,"% Injected Dose per Organ, Blood",[1]; 120 min,0.45 ± 0.03 % Injected Dose per Organ
same,"% Injected Dose per Organ, Brain",[1]; 120 min,0.04 ± 0.01 % Injected Dose per Organ
same,"% Injected Dose per Organ, Heart",[1]; 120 min,0.01 ± 0.06 % Injected Dose per Organ
same,"% Injected Dose per Organ, Kidney (one)",[1]; 120 min,5.40 ± 0.24 % Injected Dose per Organ
same,"% Injected Dose per Organ, Liver",[1]; 120 min,3.91 ± 0.19 % Injected Dose per Organ
same,"% Injected Dose per Organ, Lungs",[1]; 120 min,0.64 ± 0.06 % Injected Dose per Organ
same,"% Injected Dose per Organ, Spleen",[1]; 120 min,0.97 ± 0.07 % Injected Dose per Organ
same,"% injected dose in heart, 2 h",[1],1.01 ± 0.06 % injected dose
same,Heart/Blood,"[1]; ratio, 1 min",1.11 ± 0.40
same,Heart/Liver,"[1]; ratio, 1 min",0.23 ± 0.06
same,Heart/Lungs,"[1]; ratio, 1 min",1.07 ± 0.12
same,Heart/Blood,"[1]; ratio, 15 min",9.65 ± 0.53
same,Heart/Liver,"[1]; ratio, 15 min",0.32 ± 0.02
same,Heart/Lungs,"[1]; ratio, 15 min",1.96 ± 0.20
same,Heart/Blood,"[1]; ratio, 120 min",44.46 ± 1.63
same,Heart/Liver,"[1]; ratio, 120 min",3.24 ± 0.07
same,Heart/Lungs,"[1]; ratio, 120 min",2.34 ± 0.14
same,log P,[2]; 1-octanol / isotonic Tris buffer pH 7.0,2.73
"COc1cc([O-])c(C=NCCCNCCNCCCN=Cc2c([O-])cc(OC)cc2OC)c(OC)c1.[67Ga+3] [(4,6-MeO2 Sal)2 BAPEN]","% Injected Dose per Gram Tissue, Blood",[1]; 1 min,0.66 ± 0.14 % Injected Dose per Gram Tissu
same,"% Injected Dose per Gram Tissue, Brain",[1]; 1 min,0.03 ± 0.01 % Injected Dose per Gram Tissu
same,"% Injected Dose per Gram Tissue, Heart",[1]; 1 min,1.52 ± 0.24 % Injected Dose per Gram Tissu
same,"% Injected Dose per Gram Tissue, Kidney (one)",[1]; 1 min,6.40 ± 0.92 % Injected Dose per Gram Tissu
same,"% Injected Dose per Gram Tissue, Liver",[1]; 1 min,4.72 ± 0.82 % Injected Dose per Gram Tissu
same,"% Injected Dose per Gram Tissue, Lungs",[1]; 1 min,0.81 ± 0.16 % Injected Dose per Gram Tissu
same,"% Injected Dose per Gram Tissue, Spleen",[1]; 1 min,0.61 ± 0.09 % Injected Dose per Gram Tissu
same,"% injected dose in heart, 1 min",[1]; 1 min,1.04 ± 0.12 % injected dose
same,"% Injected Dose Per Gram of Tissue, Blood",[1]; 5 min,0.11 ± 0.01 % Injected Dose Per Gram of Tissue
same,"% Injected Dose Per Gram of Tissue, Brain",[1]; 5 min,0.01 ± 0.00 % Injected Dose Per Gram of Tissue
same,"% Injected Dose Per Gram of Tissue, Heart",[1]; 5 min,1.45 ± 0.20 % Injected Dose Per Gram of Tissue
same,"% Injected Dose Per Gram of Tissue, Kidney (1)",[1]; 5 min,6.10 ± 0.53 % Injected Dose Per Gram of Tissue
same,"% Injected Dose Per Gram of Tissue, Liver",[1]; 5 min,4.32 ± 0.53 % Injected Dose Per Gram of Tissue
same,"% Injected Dose Per Gram of Tissue, Lungs",[1]; 5 min,0.55 ± 0.05 % Injected Dose Per Gram of Tissue
same,"% Injected Dose Per Gram of Tissue, Spleen",[1]; 5 min,0.52 ± 0.15 % Injected Dose Per Gram of Tissue
same,"% Injected Dose per Gram Tissue, Blood",[1]; 15 min,0.07 ± 0.01 % Injected Dose per Gram Tissu
same,"% Injected Dose per Gram Tissue, Brain",[1]; 15 min,0.01 ± 0.00 % Injected Dose per Gram Tissu
same,"% Injected Dose per Gram Tissue, Heart",[1]; 15 min,1.22 ± 0.12 % Injected Dose per Gram Tissu
same,"% Injected Dose per Gram Tissue, Kidney (one)",[1]; 15 min,4.22 ± 0.30 % Injected Dose per Gram Tissu
same,"% Injected Dose per Gram Tissue, Liver",[1]; 15 min,2.19 ± 0.21 % Injected Dose per Gram Tissu
same,"% Injected Dose per Gram Tissue, Lungs",[1]; 15 min,0.42 ± 0.06 % Injected Dose per Gram Tissu
same,"% Injected Dose per Gram Tissue, Spleen",[1]; 15 min,0.43 ± 0.06 % Injected Dose per Gram Tissu
same,"% Injected Dose per Gram Tissue, Blood",[1]; 120 min,0.03 ± 0.00 % Injected Dose per Gram Tissu
same,"% Injected Dose per Gram Tissue, Brain",[1]; 120 min,0.01 ± 0.00 % Injected Dose per Gram Tissu
same,"% Injected Dose per Gram Tissue, Heart",[1]; 120 min,1.37 ± 0.12 % Injected Dose per Gram Tissu
same,"% Injected Dose per Gram Tissue, Kidney (one)",[1]; 120 min,2.77 ± 0.24 % Injected Dose per Gram Tissu
same,"% Injected Dose per Gram Tissue, Liver",[1]; 120 min,0.33 ± 0.01 % Injected Dose per Gram Tissu
same,"% Injected Dose per Gram Tissue, Lungs",[1]; 120 min,0.45 ± 0.11 % Injected Dose per Gram Tissu
same,"% Injected Dose per Gram Tissue, Spleen",[1]; 120 min,0.37 ± 0.06 % Injected Dose per Gram Tissu
same,"% injected dose in heart, 2 h",[1],0.86 ± 0.11 % injected dose
same,Heart/Blood,"[1]; ratio, 1 min",2.34 ± 0.36
same,Heart/Liver,"[1]; ratio, 1 min",0.32 ± 0.03
same,Heart/Lungs,"[1]; ratio, 1 min",1.88 ± 0.18
same,Heart/Blood,"[1]; ratio, 5 min",13.28 ± 2.19
same,Heart/Liver,"[1]; ratio, 5 min",0.34 ± 0.04
same,Heart/Lung,"[1]; ratio, 5 min",2.64 ± 0.34
same,Heart/Blood,"[1]; ratio, 15 min",18.10 ± 0.91
same,Heart/Liver,"[1]; ratio, 15 min",0.56 ± 0.10
same,Heart/Lungs,"[1]; ratio, 15 min",2.98 ± 0.53
same,Heart/Blood,"[1]; ratio, 120 min",45.58 ± 3.96
same,Heart/Liver,"[1]; ratio, 120 min",4.12 ± 0.44
same,Heart/Lungs,"[1]; ratio, 120 min",3.27 ± 1.32
same,log P,"[2]; octanol/tris buffer, pH 7",1.68
